Source: patent US8048918B2, “Treatment of hyperproliferative diseases” (Vampex Limited, priority 2000, dated 2011)
“Also recorded” adds a separate entry of the source. Where no end group is shown, it is not given here.

How the values were obtained:
[1] = tested on: hyperproliferative psoriatic keratinocytes; assay: proliferation assay (Coulter cell counter) on hyperproliferative psoriatic keratinocytes; type: cell-based, human
Text: Biopsy samples are obtained from psoriatic patients. Skin from patients with chronic plaque psoriasis are obtained with informed consent. Ethical approval has been obtained previously from The South Sheffield Regional Ethics Committee. Biopsies are all be taken from the lower back in psoriasis patients aged 40 to 60.
Remove subcutaneous tissue and some of the dermis with scissors, dissect skin into 1×2 cm pieces with a scalpel. Rinse the tissue 2-5 times in PBSA. Float skin samples on 0.6% Trypsin in PBSA (pH 7.4) ON at 4° C. (or alternatively for 20-30 min at 37° C.)
The separation of the epidermis is carefully monitored. When the first detachment of the epidermis is visible at the cut edges of the skin sample place the pieces (dermis-side down) in 100 mm Petri dishes. Irrigate with 5 ml of complete culture medium (incl. serum). Peel off the epidermis with forceps and collect it in a 50 ml centrifuge tube containing 20 ml of complete culture medium (KGM). Separate the keratinocytes from the epidermal cells by gently pipetting and sieving through a nylon gauze of 100 μm mesh. Wash the isolated epidermal cells twice in KGM by centrifugation at 100 g for 10 min, and count the total number of cells.
Cells are seeded at 37° C. in KGM medium at a density of 2500 cells/cm^2 in a 25 cm^2 cell culture flask. The medium is replaced every 48 hours and cells are passaged when confluent.
Cell Seeding and Analysis: Purchased secondary cultures or primary cultures (from donor skin) are seeded at 3500 cells/cm^2 in K-SFM 25 cm^2 tissue culture flasks. The medium is changed (5 ml per flask) the day after seeding and every other day thereafter. At 70-80% confluence the cells are subcultured by seeding 3500 cells per well in 24 well cell culture plates, each well containing 500 μl of K-SFM. One well plate is seeded for each treatment. After allowing one day for settling the cells are switched to experimental medium (500 μl per well). Stock solutions of additions are as before. Experimental treatments are as follows:
The medium is replaced every other day. Cells are harvested by trypsinisation. 500 μl Trypsin/EDTA is added to each well to be harvested and then aspirated off. The well plates are incubated for 5-6 min at 37° C. 500 μl PBS is added to the wells and the cells are resuspended. The cell suspension is added to 20 ml Isoton solution in a Coulter counter “Accuvette” and the cells are counted. On each harvest, 3 wells of cells are counted for each treatment and 3 counts were made for each well.
Cell number is calculated as follows: Coulter Counter removes 500 μl of 20 ml sample ( 1/40). Multiply cell count by 40 to obtain cell number in cup, this equals the total number of cells in one well (approximately, as ˜10% taken out for viability test). […]

[2] = tested on: hyperproliferative psoriatic keratinocytes; assay: differentiation assay (K1/K10 mRNA, Northern blot / RT-PCR) on hyperproliferative psoriatic keratinocytes; type: cell-based, human
Procedure: RNA extraction is carried out according to the manufacturers instructions using the RNeasy kit (QIAGEN). 20 μg of RNA for each treatment was separated on a 1.2% agarose (1.8% formaldehyde) gel and transferred onto a nylon membrane (Zeta probe GT membranes, BioRad) by capillary transfer. The RNA is fixed to the membrane by UV crosslinking. DNA probes for the differentiation markers K1 and K10(50 ng) are labelled with [α-^32P] dCTP using the Prime-It RmT Primer labeling kit (Stratagene) following the manufacturer's instructions. Unincorporated nucleotides are removed by elution through a Microspin G25 column (Pharmacia Biotech). The blots are wetted in 0.25M sodium phosphate (pH 7.2)/7% SDS for 30 minutes at 65° C. Fresh hybridisation solution is added along with the radiolabelled probe and the blot is hybridised overnight at 65° C.
The blot is washed for 2×5 minutes in 0.25M sodium phosphate (pH 7.2), 7% SDS and then for 2×5 minutes in 20 mM sodium phosphate (pH 7.2), 5% SDS at 65° C. The wash steps are repeated until a clear distinction can be made between the signal and non-specific background. The blot is exposed to x-ray film for 24 hours before developing.
Synthesis of mRNA for the K1 and K10 keratin (markers for commitment to terminal differentiation) is examined by quantitative reverse transcription PCR (RT-PCR). Synthesis of mRNA for Cyclin D (a marker for cell proliferation) is also assayed by RT-PCR. Standard protocol for RT-PCR is followed as recommended by the manufacturer of the PCR machine (PE 2400) using 1 μg RNA from each keratinocyte culture. Suitable primers for RT-PCR are designed based on the human sequences of K1 and K10 deposited in GenBank. Northern blots are also performed: cells are harvested, RNA extracted and 20 μg RNA loaded into each well of a formaldehyde/agarose gel. The RNA is blotted onto a nylon membrane by capillary transfer and expression of K1 mRNA is determined by Northern hybridisation with a radiolabelled DNA probe.
Next, hyperproliferative epidermal keratinocytes are obtained, isolated and cultured as described above in Example 3. Hyperproliferative psoriatic keratinocytes are cultured as described above in serum-free medium with or without the addition of […] human retinol binding protein. At confluence the cells are treated (see Table 3 below) for 96 hours with peptides to 6 μM (medium replaced after 48 hours). Treatments shown in the Table 3 are for duplicate T-25 flasks (2×7 ml for each treatment).
The final concentrations are: Ca^2+ 1.2 mM, RBP 0.6 μM, peptides 6 μM.
Expression of K1 and K10 markers is determined as described above in Example 4. […]
Synthesis of mRNA for markers of proliferation and differentiation is also examined by semi-quantitative reverse transcription PCR (RT-PCR). […]

COS-7 cells = assay: proliferation assay of COS-7 cells (Coulter counter); type: cell-based; settings: P142 1 mg/ml, peptides 6 μM; 24 and 48 hours after treatment; FIG. 8
Procedure: (§1) […] (COS1 and COS7) are purchased from the European Cell Culture Collection, thawed and propagated according to the instructions from the supplier; cells are cultured essentially in the same manner as for normal human keratinocytes (Example 3 above), except that cells are seeded at 20 000 cells/cm^2, with only one treatment with antibody P142, control immunoglobulin, peptide 589, peptide 592 or control peptide 24 hrs after seeding.
(§2) Proliferation is assayed by counting cells in a Coulter counter, as described above.

COS-1 cells = assay: proliferation assay of COS-1 cells (Coulter counter); type: cell-based; settings: P142 1 mg/ml, peptides 6 μM; 24 and 48 hours after treatment; FIG. 7
Procedure: as §1, §2

[3] = tested on: human dermal fibroblast cells; assay: proliferation assay of human dermal fibroblast cells; type: cell-based; settings: P142 1 mg/ml, peptides 6 μM; 24 hours and 4 days after treatment; FIG. 9
Procedure: Fibroblast cell culture is performed essentially as described for culture of hyperproliferative psoriatic keratinocytes (Example 3), except that following irrigation with complete culture medium, the dermal portion is incubated with 1 mg/ml of collagenase (Sigma) in 20 ml DMEM in a 50 ml centrifuge tube for 16 hours at 37° C. Then 20 ml DMEM containing 5% foetal calf serum and 1% antibiotic/antimycotic solution (Gibco) is added and the cells seeded at 37° C. in DMEM medium+additions at a density of 2500 cells/cm^2 in a 25 cm^2 cell culture flask. Medium is replaced every 48 hours and cells passaged when confluent.
Fibroblast cell culture and experiments are performed essentially as described for culture of hyperproliferative psoriatic keratinocytes (above), except that following irrigation with complete culture medium, the dermal portion is processed further. Reference is made to fibroblast culture protocols set out above.
Proliferation of cells is assayed by direct cell counting essentially as for determination of proliferation in keratinocyte cell cultures. RDH, ADH, RalDH inhibitors are found to reduce proliferation.

[4] = peptides 6 μM, Ca2+ 1.2 mM, RBP 0.6 μM

| Compound | effect on RBP-increased proliferation [1, 4] | differentiation (expression of K1 and K10 markers) [2, 4] | proliferation of Cos-7 cells (cell numbers) (COS-7 cells) | proliferation of Cos-1 cells (cell numbers) (COS-1 cells) | fibroblast proliferation (cell numbers) [3] | keratinocyte proliferation on addition of retinol or retinoic acid ([1]; 1.2 mM Ca2+, 2 μM ROL, FIG. 10) | effect of RBP or ROL on differentiation ([2]; under differentiation pressure from 1.2 mM calcium) |
| --- | --- | --- | --- | --- | --- | --- | --- |
| MKYWGVASFLQKGND [Peptide 592] | reversed | reversed; also recorded: same effect | marked reduction in proliferation | marked reduction in proliferation | greater reduction in proliferation | – | – |
| CC1=C(/C=C/C(C)=C/C=C/C(C)=C/CO)C(C)(C)CCC1 [retinol, (2E,4E,6E,8E)-3,7-dimethyl-9-(2,6,6-trimethylcyclohex-1-en-1-yl)nona-2,4,6,8-tetraen-1-ol, reference compound] | – | – | – | – | – | induced | inhibition of differentiation |
